Data on 20 compounds can be found in patent publication US6294674A, “Dibenzofuran sulfonamide matrix metalloproteinase inhibitors” (priority 1999, dated 2001).

As a reminder, the IC50 is the concentration needed to halve the response being measured.

Assay [1] concerns the target gelatinase A catalytic domain (MMP02). The assay can be described thus: Thiopeptolide assay, gelatinase A catalytic domain (GCD, MMP02). It is filed as biochemical.
For assay [2], the target named is T1, MMP01 (Homo sapiens, UniProt P03956).
T1 construct: purchased Washington University School of Medicine, St. Louis, Mo
T1 sequence (P03956 100-469): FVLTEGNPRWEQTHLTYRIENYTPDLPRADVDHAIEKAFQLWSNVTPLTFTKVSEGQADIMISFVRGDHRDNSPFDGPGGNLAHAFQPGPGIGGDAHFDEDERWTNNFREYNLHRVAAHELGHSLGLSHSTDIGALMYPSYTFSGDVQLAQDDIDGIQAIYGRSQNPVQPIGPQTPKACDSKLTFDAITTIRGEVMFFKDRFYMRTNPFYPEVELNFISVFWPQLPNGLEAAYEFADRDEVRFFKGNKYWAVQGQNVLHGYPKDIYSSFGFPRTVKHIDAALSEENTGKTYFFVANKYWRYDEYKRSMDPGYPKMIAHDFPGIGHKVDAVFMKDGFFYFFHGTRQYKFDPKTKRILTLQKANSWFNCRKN
The assay can be described thus: Thiopeptolide assay, MMP01. The format is biochemical.

Assay [3] concerns the target T2, stromelysin-1 catalytic domain (MMP03) (Homo sapiens, UniProt P08254).
T2 construct: SCD (stromelysin-1 catalytic domain); made in house; host or cells: Escherichia coli
In words: Thiopeptolide assay, stromelysin-1 catalytic domain (SCD, MMP03). The format is biochemical.

The subject of assay [4] is MMP13. The assay can be described thus: Thiopeptolide assay, MMP13. The format is biochemical, human. The conditions noted are these: Table 1. As to the method: MMP01, MMP07, MMP09, and MMP13 activity was assayed in a method similar to MMP02 and MMP03 (SCD and GCD). MMP01 and MMP09 can be obtained from Washington University School of Medicine, St. Louis, Mo. MMP07 can be obtained in accordance with the known procedure set forth by Ye QZ, Johnson L. L., and Baragi V., "Gene Syntheses and Expression in E. coli for PUMP, a Human Matrix Metalloproteinase" Biochem. and Biophys. […] MMP 13 can be obtained in accordance with the known procedure set forth by Freije J. M. P., et al., "Molecular Cloning and Expression of Collegenase-3, a Novel Human Matrix Metalloproteinase Produced by Breast Carcinomas" J. Bio.
Hydrolysis of the thiopeptolide substrate Ac-Pro-Leu-Gly-thioester-Leu-Leu-Gly-OEt (Bachem) is used as the primary screen to determine IC50 values for MMP inhibitors. A 100 μL reaction contains 1 mM 5,5'-dithiobis(2-nitrobenzoic acid) (DTNB), 100 μM substrate, 0.1% Brij, enzyme, and inhibitor in the appropriate reaction buffer. Activated full-length enzymes are assayed at 5 nM, Stromelysin Catalytic Domain (SCD) at 10 nM, and Gelatinase A Catalytic Domain (GaCD) at 1 nM. Inhibitors are screened from 100 μM to 1 nM. Full-length enzymes are assayed in 50 mM HEPES, 10 mM CaCl2, pH 7.0; SCD in 50 mM MES, 10 mM CaCl2, pH 6.0; and GaCD in 50 mM MOPS, 10 mM CaCl2, 10 μM ZnCl2, pH 7.0.

Assay [5] concerns the target T3, MMP07 (Homo sapiens, UniProt P09237).
T3 construct: made in house; host or cells: Escherichia coli
T3 sequence (P09237 95-267): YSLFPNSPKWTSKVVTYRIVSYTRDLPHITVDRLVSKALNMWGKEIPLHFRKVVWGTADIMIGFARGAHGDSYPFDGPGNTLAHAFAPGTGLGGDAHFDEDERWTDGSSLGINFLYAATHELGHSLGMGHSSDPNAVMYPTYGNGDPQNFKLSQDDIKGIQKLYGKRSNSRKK
In words: Thiopeptolide assay, MMP07. The format is biochemical.

Assay [6] relates to human ovarian carcinoma xenografts. The conditions noted are these: Davies, et al., Cancer Res., 1993; cited from earlier work.
Assay [7] deals with MMP-13CD. The assay can be described thus: Thiopeptolide assay, MMP-13CD. The format is biochemical, human. As to conditions: Tables 2, 3, 5, 7.
Setting [8] is: Table 1, GCD, read-out: IC50 MMP02.
Setting [9] is: Table 1, SCD, read-out: IC50 MMP03.
Setting [10] is: Tables 2, 3, 5, 7, read-out: IC50 MMP-2CD.
[11] abbreviates: Tables 2, 3, 5, 7, read-out: IC50 MMP1.
[12] abbreviates: Tables 2, 3, 5, 7, read-out: IC50 MMP 3CD.
[13] abbreviates: Tables 2, 3, 5, 7, read-out: IC50 MMP-7.

Like-named read-outs stand apart in the source and are kept apart here. Bounds are passed on as bounds.

T2 sequence (P08254 100-272 limits assumed): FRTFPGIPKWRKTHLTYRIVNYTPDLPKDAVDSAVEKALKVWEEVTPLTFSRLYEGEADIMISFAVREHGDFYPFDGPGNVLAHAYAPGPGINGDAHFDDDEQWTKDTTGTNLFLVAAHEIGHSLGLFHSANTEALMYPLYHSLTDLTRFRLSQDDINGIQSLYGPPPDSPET

Take `O=C(O)[C@H](CCc1ccccc1)NS(=O)(=O)c1ccc2c(c1)oc1ccccc12` [Example 8]: the IC50 is 0.0038 µM in assay [1] (setting [8]); 3.5 µM in assay [2] (Table 1, read-out: IC50 MMP01); 0.013 µM in assay [3] (setting [9]); 0.032 µM in assay [4]; 1.2 µM in assay [5] (Table 1, read-out: IC50 MMP07).

Consider `CNC(=O)[C@H](Cc1ccccc1)NC(=O)[C@H](CC(C)C)[C@H](CSc1cccs1)C(=O)NO` [BB-94], for which, in assay [6], the survival entry is “prolonged the survival of mice” and the tumor burden result is “decreased the tumor burden”.

Turning to “2-(Dibenzofuran-2-sulfonylamino)-pentanedioic acid 1-tert-butyl Ester [Example 4]”, the IC50 in assay [1] (setting [8]) stood at 0.12 µM; in assay [2] (Table 1, read-out: IC50 MMP01), 91 µM; in assay [3] (setting [9]), 0.46 µM; in assay [4], 0.35 µM; in assay [5] (Table 1, read-out: IC50 MMP07) it was 3.7 µM.

Consider `CCCc1ccc(C(=O)CC(NS(=O)(=O)c2ccc3oc4ccccc4c3c2)C(=O)O)cc1` (stereo not shown) [Example 6], for which the IC50 is 2.4 µM in assay [1] (setting [8]); 100 µM in assay [2] (Table 1, read-out: IC50 MMP01); 3.7 µM in assay [3] (setting [9]); 7.1 µM in assay [4]; 87 µM in assay [5] (Table 1, read-out: IC50 MMP07).

With `O=C(CC[C@H](NS(=O)(=O)c1ccc2oc3ccccc3c2c1)C(=O)O)NCCc1ccccc1` [Example 5, 2-(Dibenzofuran-2-sulfonylamino)-4-phenethylcarbamoyl-butyric acid], the IC50 in assay [1] (setting [8]) amounted to 0.076 µM; in assay [2] (Table 1, read-out: IC50 MMP01), 39 µM; in assay [3] (setting [9]) it was 0.325 µM; in assay [4] it was 0.28 µM; in assay [5] (Table 1, read-out: IC50 MMP07), 6.55 µM.

`O=C(O)[C@H](CCc1ccccc1)NS(=O)(=O)c1ccc2sc3ccccc3c2c1` [Example 7, 2-(Dibenzothiophene-2-sulfonylamino)-4phenyl-butyric acid]: the IC50 in assay [1] (setting [8]) is 0.78 µM; in assay [2] (Table 1, read-out: IC50 MMP01), 100 µM; in assay [3] (setting [9]), 1.3 µM; in assay [4], 5.8 µM; in assay [5] (Table 1, read-out: IC50 MMP07), 82 µM.

Turning to `O=C(CCC(NS(=O)(=O)c1ccc2oc3ccccc3c2c1)C(=O)O)NCC(c1ccccc1)c1ccccc1` (stereo not shown) [Example F5, 2-(Dibenzofuran-2-sulfonylamino)-4-(2,2-diphenyl-ethylcarbamoyl)-butyric acid], the IC50 in assay [1] (setting [10]) is 0.7 µM; in assay [2] (setting [11]), greater than 100 µM; in assay [3] (setting [12]), 1 µM; in assay [7] it was 0.7 µM; in assay [5] (setting [13]), 40.9 µM.

Take `O=C(O)C(CCCCNC(=S)NC12CC3CC(CC(C3)C1)C2)NS(=O)(=O)c1ccc2oc3ccccc3c2c1` (stereo not shown) [Example B6, 6-(3-Adamantan-1-yl-thioureido)-2-(dibenzofuran-2-sulfonylamino)-hexanoic acid]: the IC50 was 3.1 µM in assay [1] (setting [10]); greater than 100 µM in assay [2] (setting [11]); 9 µM in assay [3] (setting [12]); 4.4 µM in assay [7]; greater than 100 µM in assay [5] (setting [13]).

For the compound `O=C(O)C(CCCCNS(=O)(=O)C=Cc1ccccc1)NS(=O)(=O)c1ccc2oc3ccccc3c2c1` (stereo not shown) [Example D10, 2-(Dibenzofuran-2-sulfonylamino)-6-(2-phenyl-ethenesulfonylamino)-hexanoic acid], the IC50 in assay [1] (setting [10]) was 2.5 µM; in assay [2] (setting [11]) it was greater than 100 µM; in assay [3] (setting [12]), 4.2 µM; in assay [7], 11.1 µM; in assay [5] (setting [13]), greater than 100 µM.

With `CCC(C)CNC(=O)CCC(NS(=O)(=O)c1ccc2oc3ccccc3c2c1)C(=O)O` (stereo not shown) [Example F2, 2-(Dibenzofuran-2-sulfonylamino)-4-(2-methyl-butylcarbamoyl)-butyric acid], the IC50 was 0.9 µM in assay [1] (setting [10]); greater than 100 µM in assay [2] (setting [11]); 1.8 µM in assay [3] (setting [12]); 1.2 µM in assay [7]; 26.4 µM in assay [5] (setting [13]).

Turning to `O=C(NCCCCC(NS(=O)(=O)c1ccc2oc3ccccc3c2c1)C(=O)O)Nc1ccccc1` (stereo not shown) [Example B10, 2-(Dibenzofuran-2-sulfonylamino)-6-(3-phenyl-ureido)-hexanoic acid], the IC50 is 0.3 µM in assay [1] (setting [10]); greater than 100 µM in assay [2] (setting [11]); 2.4 µM in assay [3] (setting [12]); 8 µM in assay [7]; greater than 100 µM in assay [5] (setting [13]).

Turning to `COc1ccc(NC(=O)NCCCCC(NS(=O)(=O)c2ccc3oc4ccccc4c3c2)C(=O)O)cc1` (stereo not shown) [Example B1, 2-(Dibenzofuran-2-sulfonylamino)-6-[3-(4-methoxy-phenyl)-ureido]-hexanoic acid], the IC50 was 2.7 µM in assay [1] (setting [10]); greater than 100 µM in assay [2] (setting [11]); 8.8 µM in assay [3] (setting [12]); 14.2 µM in assay [7]; greater than 100 µM in assay [5] (setting [13]).

Turning to `O=C(CC1=CCCC1)NCCCCC(NS(=O)(=O)c1ccc2oc3ccccc3c2c1)C(=O)O` (stereo not shown) [Example A12], the IC50 in assay [1] (setting [10]) is 0.6 µM; in assay [2] (setting [11]) it was greater than 100 µM; in assay [3] (setting [12]), 1 µM; in assay [7], 1.7 µM; in assay [5] (setting [13]) it was 64.9 µM.

For `O=C(CCC(NS(=O)(=O)c1ccc2oc3ccccc3c2c1)C(=O)O)NCc1ccccc1` (stereo not shown) [Example F10, 4-Benzylcarbamoyl-2-(dibenzofuran-2-sulfonylamino)-butyric acid], the IC50 in assay [1] (setting [10]) is 2.1 µM; in assay [2] (setting [11]) it was greater than 100 µM; in assay [3] (setting [12]) it was 2.7 µM; in assay [7] it was 1.9 µM; in assay [5] (setting [13]) it was 74.1 µM.

As to `Cn1cccc1CCNC(=O)CCC(NS(=O)(=O)c1ccc2oc3ccccc3c2c1)C(=O)O` (stereo not shown) [Example F14, 2-(Dibenzofuran-2-sulfonylamino)-4-[2-(1-methyl-1H-pyrrol-2-yl)-ethylcarbamoyl]-butyric acid], the IC50 in assay [1] (setting [10]) is 0.4 µM; in assay [2] (setting [11]) it was greater than 100 µM; in assay [3] (setting [12]), 1.4 µM; in assay [7], 2.4 µM; in assay [5] (setting [13]) it was 57.6 µM.

Take `O=C(CCc1ccc(Cl)cc1)NCCCCC(NS(=O)(=O)c1ccc2oc3ccccc3c2c1)C(=O)O` (stereo not shown) [Example A28, 6-[3-(4-Chloro-phenyl)-propionylamino]-2-(dibenzofuran-2-sulfonylamino)-hexanoic acid]: the IC50 is 1.8 µM in assay [1] (setting [10]); greater than 100 µM in assay [2] (setting [11]); 4.5 µM in assay [3] (setting [12]); 8.7 µM in assay [7]; greater than 100 µM in assay [5] (setting [13]).

Regarding `COc1ccccc1CCC(=O)NCCCCC(NS(=O)(=O)c1ccc2oc3ccccc3c2c1)C(=O)O` (stereo not shown) [Example A25], the 50% inhibitory concentration (IC50) in assay [1] (setting [10]) is 1.8 µM; in assay [2] (setting [11]), greater than 100 µM; in assay [3] (setting [12]) it was 5.2 µM; in assay [7] it was 5.2 µM; in assay [5] (setting [13]) it was greater than 100 µM.

For the compound `O=C(CCC(NS(=O)(=O)c1ccc2oc3ccccc3c2c1)C(=O)O)NCCCCc1ccccc1` (stereo not shown) [Example F13, 2-(Dibenzofuran-2-sulfonylamino)-4-(4-phenyl-butylcarbamoyl)-butyric acid], the IC50 in assay [1] (setting [10]) was 9.3 µM; in assay [2] (setting [11]), greater than 100 µM; in assay [3] (setting [12]), 26.5 µM; in assay [7], 24.1 µM; in assay [5] (setting [13]), greater than 100 µM.

As for `O=C(CCCc1ccccc1)NCCCCC(NS(=O)(=O)c1ccc2oc3ccccc3c2c1)C(=O)O` (stereo not shown) [Example A26, 2-(Dibenzofuran-2-sulfonylamino)-6-(4-phenyl-butyrylamino)-hexanoic acid], the IC50 in assay [1] (setting [10]) was 1.5 µM; in assay [2] (setting [11]), greater than 100 µM; in assay [3] (setting [12]) it was 4.2 µM; in assay [7], 5.4 µM; in assay [5] (setting [13]), greater than 100 µM.

With `O=C(CCC(NS(=O)(=O)c1ccc2oc3ccccc3c2c1)C(=O)O)NCc1cccc2ccccc12` (stereo not shown) [Example F16], the IC50 was 0.4 µM in assay [1] (setting [10]); greater than 100 µM in assay [2] (setting [11]); 1.1 µM in assay [3] (setting [12]); 1 µM in assay [7]; 22.1 µM in assay [5] (setting [13]).
